We go through 35 molecules from patent US20230021448A1, “COMPOUNDS AND COMPOSITIONS FOR TREATING CONDITIONS ASSOCIATED WITH STING ACTIVITY” (IFM Due, Inc., priority 2019, published 2023).

T1 sequence (Q86WV6 whole entry R71H/G230A/H232R/R293Q): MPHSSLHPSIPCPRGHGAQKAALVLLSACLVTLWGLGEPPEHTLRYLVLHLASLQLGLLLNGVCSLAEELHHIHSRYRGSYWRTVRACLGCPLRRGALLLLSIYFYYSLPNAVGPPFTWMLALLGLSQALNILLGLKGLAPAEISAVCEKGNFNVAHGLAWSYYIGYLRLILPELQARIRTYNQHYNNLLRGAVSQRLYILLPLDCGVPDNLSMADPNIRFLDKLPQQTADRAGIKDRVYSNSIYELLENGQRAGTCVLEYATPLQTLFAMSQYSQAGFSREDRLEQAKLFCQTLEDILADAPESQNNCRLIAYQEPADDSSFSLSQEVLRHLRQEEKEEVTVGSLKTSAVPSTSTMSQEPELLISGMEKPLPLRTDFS

The experiment addresses T1, STING (Homo sapiens, UniProt Q86WV6, G230A/H232R/R293Q/R71H).
T1 construct: host or cells: THP1-Dual KO-IFNAR2 cells
The experiment in a line: STING reporter assay: luciferase reporter activity in THP1-Dual KO-IFNAR2 cells stimulated with 2'3'cGAMP. The format is cell-based. As to conditions: 2′3′cGAMP 15 μM final, 24h, read-out: hSTING: EC50. In a few lines: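 THP1-Dual KO-IFNAR2 cells (2×10E6 cells/mL) incubated with compounds at 0.0017-100 μM final plus Lipofectamine-transfected 2′3′cGAMP (15 μM final), 24 h at 37 °C, 5% CO2. Luciferase in supernatant read by QUANTI-Luc luminescence; EC50 derived.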
(A reporter such as luciferase makes a cellular process visible.)
The EC50 is the midpoint of the concentration-response curve. On to `O=C(Nc1ccc(C(F)(F)F)cc1)C(=O)Nc1c[nH]c2ccccc12` [Compound 116, N1-(1H-indol-3-yl)-N2-(4-(trifluoromethyl)phenyl)oxalamide], for which the EC50 was in the range of 200 to 1000 nM.

With `O=C(Nc1c[nH]c2cc(F)c(F)cc12)C(=O)NC1CCC2(CCCC2)C1` (single isomer, unassigned) [Compound 245], the 50% effective concentration (EC50) was 200 to 1000 nM.

As for `O=C(Nc1ccc(C(F)(F)F)cn1)C(=O)Nc1c[nH]c2cc(F)c(F)cc12` [Compound 101], the concentration giving a half-maximal response (EC50) was in the range of 200 to 1000 nM.

As for `CCC1CCN(C(=O)C(=O)Nc2c[nH]c3cc(F)c(F)cc23)CC1` [Compound 117], the 50% effective concentration (EC50) lay within 1000 to 5000 nM.

Consider `O=C(NCC(=O)c1cccc(C(F)(F)F)c1)C(=O)Nc1c[nH]c2cc(F)c(F)cc12` [Compound 275, N-(5,6-difluoro-1H-indol-3-yl)-N′-{2-oxo-2-[3-(trifluoromethyl)phenyl]ethyl} ethanediamide], for which the EC50 lay in the range of 200 to 1000 nM.

Take `O=C(NCCc1cccc(C(F)(F)F)c1)C(=O)Nc1c[nH]c2cc(F)c(F)cc12` [Compound 351]: the EC50 was 200 to 1000 nM.

Turning to `O=C(NCc1ccc(C(F)(F)F)c(Cl)c1)C(=O)Nc1c[nH]c2cc(F)c(F)cc12` [Compound 123], the EC50 is 40 to 200 nM.

Regarding `O=C(Nc1c[nH]c2cc(F)c(F)cc12)C(=O)N[C@H]1CCN(c2ccc(C(F)(F)F)cn2)C1` [Compound 264, (S)-N-(5,6-difluoro-1H-indol-3-yl)-N′-(1-(5-(trifluoromethyl)pyridin-2-yl)pyrrolidin-3-yl)oxalamide], the concentration for a half-maximal effect (EC50) is 200 to 1000 nM.

On to `O=C(Nc1c[nH]c2cc(F)c(F)cc12)C(=O)N[C@H]1CC[C@H](Oc2ccc(C(F)(F)F)cn2)CC1` [Compound 230, N-(5,6-difluoro-1H-indol-3-yl)-N′-[trans-4-[[5-(trifluoromethyl)pyridin-2-yl]oxy]cyclohexyl]ethanediamide], for which the EC50 lay in the range of 40 to 200 nM.

Turning to `COc1ncc(NC(=O)C(=O)Nc2c[nH]c3cc(F)c(F)cc23)cc1C(F)(F)F` [Compound 287, N-(5,6-difluoro-1H-indol-3-yl)-N′-[6-methoxy-5-(trifluoromethyl)pyridin-3-yl]ethanediamide], the EC50 fell in the range of 1000 to 5000 nM.

`Cc1cc(NC(=O)C(=O)Nc2c[nH]c3cc(F)c(F)cc23)cc(C(F)(F)F)c1` [Compound 103, N^1-(5,6-difluoro-1H-indol-3-yl)-N^2-(3-methyl-5-(trifluoromethyl)phenyl)oxalamide]: the EC50 was 40 to 200 nM.

In the case of `Cc1cc(F)c(Cl)cc1NC(=O)C(=O)Nc1c[nH]c2cc(F)c(F)cc12` [Compound 154, N1-(5-chloro-4-fluoro-2-methylphenyl)-N2-(5,6-difluoro-1H-indol-3-yl)oxalamide], the EC50 lay in the range of 200 to 1000 nM.

`CC(C)(C)OC(=O)N1CCC2(CC1)CC(NC(=O)C(=O)Nc1c[nH]c3cc(F)c(F)cc13)CO2` (centres unmarked) [Compound 271, tert-butyl 3-{[(5,6-difluoro-1H-indol-3-yl)carbamoyl] formamido}-1-oxa-8-azaspiro[4.5]decane-8-carboxylate]: the EC50 fell in the range of 1000 to 5000 nM.

As to `O=C(Nc1c[nH]c2cc(F)c(F)cc12)C(=O)NC1CCN(c2ccccc2)C1` (centres unmarked) [Compound 169], the EC50 is 200 to 1000 nM.

Regarding `O=C(NCC1CCCC(F)(F)C1)C(=O)Nc1c[nH]c2cc(F)c(F)cc12` (centres unmarked) [Compound 150, N1-(5,6-difluoro-1H-indol-3-yl)-N2-((3,3-difluorocyclohexyl)methyl)oxalamide], the EC50 fell in the range of 200 to 1000 nM.

Consider `O=C(Nc1c[nH]c2cc(F)c(F)cc12)C(=O)N[C@H]1CC[C@@H](OCC(F)F)CC1` [Compound 187], for which the EC50 was 1000 to 5000 nM.

Consider `O=C(NCCOc1ccc(C(F)(F)F)cc1)C(=O)Nc1c[nH]c2cc(F)c(F)cc12` [Compound 149, N1-(5,6-difluoro-1H-indol-3-yl)-N2-(2-(4-(trifluoromethyl)phenoxy)ethyl) oxalamide], for which the EC50 lay within 200 to 1000 nM.

Consider `O=C(Nc1c[nH]c2ccc(Cl)cc12)C(=O)N[C@H]1C[C@H](Nc2ccccn2)C1` [Compound 208], for which the EC50 was 1000 to 5000 nM.

`O=C(NCc1ccc2ccccc2n1)C(=O)Nc1c[nH]c2cc(F)c(F)cc12` [Compound 304, N-(5,6-difluoro-1H-indol-3-yl)-N′-[(quinolin-2-yl)methyl] ethanediamide]: the concentration giving a half-maximal response (EC50) lay in the range of 200 to 1000 nM.

Consider `O=C(NCC1CCc2ccccc2O1)C(=O)Nc1c[nH]c2cc(F)c(F)cc12` (centres unmarked) [Compound 145, N-(chroman-2-ylmethyl)-N2-(5,6-difluoro-1H-indol-3-yl)oxalamide], for which the EC50 was in the range of 200 to 1000 nM.

As for `O=C(Nc1c[nH]c2cc(F)c(F)cc12)C(=O)N1CCCC(Oc2ccc(C(F)(F)F)cc2)C1` (centres unmarked) [Compound 195], the concentration for a half-maximal effect (EC50) fell in the range of 200 to 1000 nM.

With `Cc1cnc(CNC(=O)C(=O)Nc2c[nH]c3cc(F)c(F)cc23)cc1C(F)(F)F` [Compound 318], the EC50 was 200 to 1000 nM.

In the case of `COc1ccc(Oc2ccc(NC(=O)C(=O)Nc3c[nH]c4cc(F)c(F)cc34)cc2C)cn1` [Compound 272, N-(5,6-difluoro-1H-indol-3-yl)-N′-{4-[(6-methoxypyridin-3-yl)oxy]-3-methylphenyl} ethanediamide], the EC50 lay within 200 to 1000 nM.

As to `O=C(NCCc1ccc(C(F)(F)F)cc1)C(=O)Nc1c[nH]c2cc(F)c(F)cc12` [Compound 144, N1-(5,6-difluoro-1H-indol-3-yl)-N2-(4-(trifluoromethyl)phenethyl) oxalamide], the half-maximal effective concentration (EC50) is 200 to 1000 nM.

Turning to `Cc1ccc(O[C@H]2C[C@H](NC(=O)C(=O)Nc3c[nH]c4cc(F)c(F)cc34)C2)nc1` [Compound 199], the half-maximal effective concentration (EC50) lay in the range of 40 to 200 nM.

As to `O=C(NCc1cccc2c1OC(F)(F)O2)C(=O)Nc1c[nH]c2cc(F)c(F)cc12` [Compound 148, N1-(5,6-difluoro-1H-indol-3-yl)-N2-((2,2-difluorobenzo[d] [1,3]dioxol-4-yl)methyl) oxalamide], the EC50 lay in the range of 40 to 200 nM.

`O=C(Nc1c[nH]c2cc(F)c(F)cc12)C(=O)NC1CCCC2(CCCCC2)C1` (single isomer, unassigned) [Compound 258]: the EC50 is 200 to 1000 nM.

`O=C(NCCc1ccccc1C(F)(F)F)C(=O)Nc1c[nH]c2cc(F)c(F)cc12` [Compound 138, N1-(5,6-difluoro-1H-indol-3-yl)-N2-(2-(trifluoromethyl)phenethyl) oxalamide]: the EC50 was in the range of 200 to 1000 nM.

As to `CCC(NC(=O)C(=O)Nc1c[nH]c2cc(F)c(F)cc12)c1cccc(C(F)(F)F)c1` (single isomer, unassigned) [Compound 235], the half-maximal effective concentration (EC50) was in the range of 200 to 1000 nM.

With `CC(NC(=O)C(=O)Nc1c[nH]c2cc(F)c(F)cc12)c1cc(C(F)(F)F)c(Cl)cn1` (single isomer, unassigned) [Compound 260], the EC50 lay within 1000 to 5000 nM.

With `O=C(Nc1c[nH]c2cc(F)c(F)cc12)C(=O)N[C@H]1C[C@H](Nc2ccc(C(F)(F)F)cn2)C1` [Compound 197], the EC50 is 200 to 1000 nM.

For the molecule `O=C(NCCC1CCC(F)(F)CC1)C(=O)Nc1c[nH]c2cc(F)c(F)cc12` [Compound 110], the concentration for a half-maximal effect (EC50) was in the range of 200 to 1000 nM.

Regarding `O=C(Nc1c[nH]c2cc(F)c(F)cc12)C(=O)NC1CCC(Oc2ccc(C(F)(F)F)nc2)CC1` (centres unmarked) [Compound 224], the half-maximal effective concentration (EC50) fell in the range of 40 to 200 nM.

Consider `O=C(Nc1c[nH]c2cc(F)c(F)cc12)C(=O)N[C@@H]1CCCC(Oc2ccc(C(F)(F)F)cc2)C1` (some centres unmarked) [Compound 234], for which the EC50 fell in the range of 200 to 1000 nM.

Take `O=C(Nc1cnc2c(c1)CCC2)C(=O)Nc1c[nH]c2cc(F)c(F)cc12` [Compound 274, N′-{5H,6H,7H-cyclopenta[b]pyridin-3-yl}-N-(5,6-difluoro-1H-indol-3-yl)ethanediamide]: the concentration for a half-maximal effect (EC50) was 1000 to 5000 nM.
